These results are taken from the NIST ThermoML archive (doi:10.1016/j.jct.2008.01.001).

± gives the expanded uncertainty stated by the source.

The conditions of data set [1]: Liquid; for mass density: 273.15 K, 101.33 kPa; for Normal boiling temperature: Ebulliometric method (Recirculating still).
The nature of data set [2]: refractive index (Na D-line) (dimensionless). The conditions noted are these: 273.15 K; 101.33 kPa; Liquid; Standard Abbe refractometry.

Broadly, the mass density is the mass of a sample divided by its volume. As to `CCCCC(CC)CO` (stereo not given) [2-ethyl-1-hexanol], in data set [1], the mass density was found to be 832.3 ± 1.2 kg/m3 and the Normal boiling temperature is 185.1 ± 0.02 °C.

As usually defined, the refractive index is the speed of light in vacuum divided by its phase velocity in the sample. In the case of `CCC(=O)O` [propanoic acid], in data set [2], the refractive index worked out at 1.3811 ± 0.0004. Also, in data set [1], the mass density is listed as 992.7 ± 0.4 kg/m3 and the Normal boiling temperature came to 141.0 ± 0.02 °C.
